Assay results from patent US7691624B2, “Cancer cell detecting devices” (Academia Sinica, priority 2003, dated 2010).
One block for each compound: values may come before it.

Key:
[1] = test system: CL1-0 cancer cells; test: Fluorescence of stained cells in eppendorf under LED, recorded by camera; format: cell-based, human; conditions: for Numbers of cells required to distinguish cancer cells and normal cells: Cancer cells (C) CL1-0
Method: (§1) Human lung CL1-0 cancer cells or MRC-5 normal cells were incubated with 0.5 μM of Compound 2 and acridine orange (AO). After incubation in standard culture medium for 1 hour, the non-fixed cells were removed by washing the culture three times with phosphate buffered saline (PBS). The fixed cells were collected in an eppendorf by trypsinization. The eppendorf was centrifuged and then illuminated by an light emitting diode (LED) emitting excitation light with a center wavelength at 470 nm. A conventional digital camera was used to record the fluorescence. Table 1 summarizes the numbers of cells required to distinguish cancer cells from normal cells based on fluorescence emission of Compound 2 and AO recorded by a camera under different experimental conditions. Specifically, Compound 2 and AO were incubated with four different cells in eppendorf, i.e., MRC-5 normal cells, primary fibroblast, CL1-0 cancer cells, and HeLa cancer cells.

[2] = test system: MRC-5 normal cells; test: as above; format: cell-based, human; conditions: for Numbers of cells required to distinguish cancer cells and normal cells: Normal cells (M) MRC-5
Method: as §1

[3] = test system: HeLa cancer cells; test: as above; format: cell-based; conditions: Cancer cells (H) HeLa
Method: as §1

[4] = test system: primary fibroblast; test: as above; format: cell-based; conditions: Normal cells (F) primary fibroblast
Method: as §1

[5] = test system: CL1-0 cancer cells; test: Stained cells spread onto cover slip, fluorescent cells counted; format: cell-based; conditions: 0.02 μM AO, 5 minutes, cover slip, LED
Method: Further, the role of the ratio of the cells stained by Compound 2/AO in cancer diagnosis was studied. Specifically, CL1-0 cancer cells, NIH3T3 normal cells, and their 1:10 mixture were respectively stained with 0.02 μM AO and 1.5 μM Compound 2 for 5 minutes in eppendorfs. Each sample was then taken from the eppendorf and spread onto a cover slip. Fluorescence emissions were recorded by a color camera upon an LED illumination. […] A statistical histogram of the ratio of the cell stained with Compound 2/AO to the ratio of the CL1-0 cells to the sum of NIH3T3 and CL1-0 cells was plotted. Each spot on the histogram represented an average of 5-10 measurements from a single sample.

[6] = Fluorescence analysis in aqueous solution; format: physicochemical; conditions: λex≈430 nm, no DNA
Method: (§2) Compound 2 was mixed with eleven DNAs and subjected to fluorescence analysis at λex≈430 nm, using a Hitachi F4010 spectrofluorimeter with a 2 nm bandwidth in a 1-cm cell. Fluorescence analysis was also carried out for compound 4 in the presence of Hum24. […] Further, the fluorescence peaks for a complex of compound 2 and a DNA duplex and a complex of compound 2 and a DNA quadruplex were at ˜550 nm and ˜575 nm, respectively.

[7] = test system: DNA; test: Fluorescence analysis in the presence of a DNA; format: binding; conditions: λex≈430 nm; compound 2 with eleven DNAs, compound 4 with Hum24
Method: as §2

[8] = test system: Hum24 quadruplex; test: Temperature-dependent CD analysis; format: binding, human
Source text: Eight DNA quadruplexes and their complexes with compound 2 were subjected to CD analysis. CD spectra were averaged 10 scans on a Jasco J-715 spectropolarimeter with a 2 nm bandwidth. The scan speed was 50 nm/min and the step resolution was 0.2 nm.
Further, Hum24 and its complexes with compounds 2, 4, 6, and 8 were subjected to temperature-dependent CD analysis.

Compound: CN(C)c1ccc2cc3ccc(N(C)C)cc3nc2c1 [AO, acridine orange, reference compound]
fluorescence emission in eppendorf ([1]; 0.5 μM, 1 hour, LED 470 nm): fluorescence emission was detected | Numbers of cells required to distinguish cancer cells and normal cells ([1]; 0.1 μM/30 min): 2,000 (C) | Numbers of cells required to distinguish cancer cells and normal cells ([1]; 0.5 μM/1 hr): 1,000 (C) | fluorescence emission in eppendorf ([2]; 0.5 μM, 1 hour, LED 470 nm): fluorescence emission was detected | Numbers of cells required to distinguish cancer cells and normal cells ([2]; 0.1 μM/30 min): 3,000 (M) | Numbers of cells required to distinguish cancer cells and normal cells ([2]; 0.5 μM/1 hr): 2,000 (M) | Numbers of cells required to distinguish cancer cells and normal cells ([3]; 0.05 μM/1 hr): 3,000 (H) | Numbers of cells required to distinguish cancer cells and normal cells ([3]; 0.1 μM/1 hr): 2,000 (H) | Numbers of cells required to distinguish cancer cells and normal cells ([4]; 0.05 μM/1 hr): 4,000 (F) | Numbers of cells required to distinguish cancer cells and normal cells ([4]; 0.1 μM/1 hr): 2,000 (F) | number of stained cells showing fluorescence [5]: 150

fluorescence in an aqueous solution [6]: weak
Compound: C[n+]1ccccc1C=Cc1ccc2[nH]c3ccc(C=Cc4cccc[n+]4C)cc3c2c1.[I-].[I-] [Compound 4, 3,6-bis-(2-(1-methylpyridinium-2-yl)-vinyl)-9H-carbazole diiodide]
increase of fluorescence intensity in the presence of a DNA [7]: two orders of magnitude | melting temperature of Hum24 quadruplex in the presence of compound [8]: increased

Compound: C[n+]1ccnc(C=Cc2ccc3[nH]c4ccc(C=Cc5c[n+](C)ccn5)cc4c3c2)c1.[I-].[I-] [Compound 6, 3,6-bis-(2-(4-methylpyrazin-4-ium-2-yl)-vinyl)-9H-carbazole diiodide]
melting temperature of Hum24 quadruplex in the presence of compound [8]: increased

Compound: C[n+]1ccc(C=Nc2ccc3[nH]c4ccc(N=Cc5cc[n+](C)cc5)cc4c3c2)cc1.[I-].[I-] [Compound 8, N,N′-bis-((1-methylpyridinium-4-yl)methylidene)-9H-carbazole-3,6-diamine diiodide]
melting temperature of Hum24 quadruplex in the presence of compound [8]: increased
